Measured values taken from patent US20230101236A1, “COSMETIC COMPOSITION” (GIVAUDAN SA, priority 2020, published 2023).

Tested on: skin microbiome
Assay: Conversion of crocin to crocetin by the skin microbiome (in vitro)
Type: in vitro ADME
Protocol: Sampling of skin microbiome was performed on 7 volunteers with a sterile gauze impregnated with NaCl in 5 areas: forehead, cheek, nose, neck, forearm. All samples were combined to obtain a representative skin microbiota composition. The thus obtained microbiome was cultured in liquid medium (buffered HT medium) at 30° C. in the presence of crocin. Supernatants were collected regularly and analyzed by HPLC-MS to detect crocin and crocetin.

CC(/C=C/C=C(\C)C(=O)O)=C\C=C\C=C(C)\C=C\C=C(/C)C(=O)O [Crocetin]
concentration, % of maximum concentration detected (skin microbiome culture with crocin, 42 h): 0.7% | concentration, % of maximum concentration detected (skin microbiome culture with crocin, 66 h): 7.9% | concentration, % of maximum concentration detected (skin microbiome culture with crocin, 90 h): 30.5% | concentration, % of maximum concentration detected (skin microbiome culture with crocin, 162 h): 65.3% | concentration, % of maximum concentration detected (skin microbiome culture with crocin, 186 h): 101.3% | concentration, % of maximum concentration detected (skin microbiome culture with crocin, 210 h): 101.3%

CC(/C=C/C=C(\C)C(=O)O[C@@H]1O[C@H](CO[C@@H]2O[C@H](CO)[C@@H](O)[C@H](O)[C@H]2O)[C@@H](O)[C@H](O)[C@H]1O)=C\C=C\C=C(C)\C=C\C=C(/C)C(=O)O[C@@H]1O[C@H](CO[C@@H]2O[C@H](CO)[C@@H](O)[C@H](O)[C@H]2O)[C@@H](O)[C@H](O)[C@H]1O [Crocin]
time for complete transformation to crocetin (human): ≤ 210 h | concentration, % of maximum concentration detected (human, 0 h): 100% | concentration, % of maximum concentration detected (human, 18 h): 100% | concentration, % of maximum concentration detected (human, 42 h): 47.5% | concentration, % of maximum concentration detected (human, 66 h): 2.9% | concentration, % of maximum concentration detected (human, 90 h): 0.1%
